Earlier results, collected in patent publication US11285107B2, “Process for manufacturing porous silica particles loaded with at least one bioactive compound adapted for lung, nasal, sublingual, and/or pharyngeal delivery” (Nanologica AB, priority 2017, dated 2022).

| Structure (SMILES) | solubility in water |
| --- | --- |
| NCC(=O)Nc1ccc(-n2nc(C(F)(F)F)cc2-c2ccc3c(ccc4ccccc43)c2)cc1 [OSU-03012, 2-amino-N-(4-(5-(phenanthren-2-yl)-3-(trifluoromethyl)-1H-pyrazol-1-yl)phenyl)acetamide] | insoluble in water |
| CCN(CC)CCNC(=O)c1cc(Cl)c(N)cc1OC [metoclopramide] | > 6000 µg/mL |
